Experimental data: US7960435B2, “Anti-cancer agents and androgen inhibition activity compound” (University of Maryland, Baltimore, priority 2006, dated 2011)
Where two headings read alike, the source gives them in different places.

What was measured:
androgen receptor (AR) = assay: AR protein expression down-regulation in LNCaP cells (Western blot); type: cell-based, human
Protocol: All five known ARDAs (FIG. 1) were evaluated for their ability to decrease AR protein expression in a dose dependent manner and dose response curves were generated to determine their EC50 values.
These compounds were further evaluated to determine their EC50 values (from dose response curves).
For immunoblot detection of the AR, LNCaP cells were cultured as described above in T25 flasks. Cells were treated with various concentrations of ARDAs and whole cell lysates were prepared using lysis buffer containing 0.1M Tris, 0.5% Triton X-100, and protease inhibitor. Protein content was determined using the Bradford Assay (Bio-Rad, Hercules, Calif., USA). Protein was subjected to SDS-PAGE (10% acrylamide) and transferred onto nitrocellulose membrane. The blots were blocked overnight in 5% nonfat milk in PBS-T buffer at 4° C. Monoclonal antibody was used against the AR (AR441; sc-7305; Santa Cruz Biotechnology, Santa Cruz, Calif.; 1:500 dilution) at room temperature for one hour. Membranes were then incubated with a goat anti-mouse IgG secondary antibody conjugated to horseradish peroxidase (Bio-Rad cat #170-6516; 1:2000 dilution) at room temperature for one hour. Blots were rinsed with PBS-T between each step and specific bands were visualized by enhanced chemiluminescence (ECL; Amersham Biosciences, Arlington Heights, Ill., USA). Equivalent loading of samples was determined by reprobing membranes with β-actin (Calbiochem, USA). Protein expression was normalized to β-actin.

LNCaP cells = assay: Cell growth inhibition (MTT colorimetric assay), LNCaP; type: cell-based, human; conditions: for GI50: LNCaP (mutant AR), MTT, means of three experiments, called IC50, read-out: Cytotoxicity GI50 (nM) LNCaP
Text: (§1) Lead optimization of BTB01434 and further biological studies: BTB01434 (Maybridge) was used as a lead molecule to synthesize new molecules. Although this compound was not as potent as some of the others (cf. Table 4), it was chosen for its ease of modification. New compounds (6-23) were developed using the diaryl sulfonamide compound BTB01434 (FIG. 6) as a scaffold. […] Including new BTB01434 analogs, including diaryl sulfonamide analogs bearing various substituents on the phenyl rings (series A), aryl amide analogs (series B), and amine analogs (series C). These new compounds were evaluated for cell growth inhibition in two human prostate cancer cell lines, (LNCaP and PC-3) by MTT assay. Based on the structures and anti-prostate cancer activities of the new compounds, a structure-activity relationship (SAR) was formulated.
Androgen-dependent LNCaP cells were obtained from American Type Culture Collection (Rockville, Md., USA). Cells were maintained in RPMI 1640 medium supplemented with 10% fetal bovine serum (Atlanta Biologicals, Lawrenceville, Ga., USA) and 1% penicillin/streptomycin. Cells were grown as a monolayer in T75 or T150 tissue culture flasks in a humidified incubator (5% CO2, 95% air) at 37° C.
(§2) LNCaP cells were seeded in 24 well plates (Corning Costar) at a density of 2×10^4 cells per well per 1 mL of medium. Cell were allowed to adhere to the plate for 24 hours and then treated with different concentrations of ARDAs dissolved in DMSO. Cells were treated for five days with renewal of ARDA and media on day 3. On the fifth day, medium was renewed and 100 μL of MTT (3-(4,5-dimethylthiazol-2-yl)-2,5-diphenyl-2H-tetrazolium bromide from Sigma) solution (0.5 mg MTT/mL of medium) was added to the medium such that the ratio of MTT:medium was 1:10. The cells were incubated with MTT for 2 hours. The medium was then aspirated and 500 μL of DMSO was added to solubilize the violet MTT-formazan product. The absorbance at 560 nm was measured by spectrophotometry (Victor 1420 multilabel counted, Wallac). For each concentration of ARDA there were triplicate wells in each independent experiment. IC50 values were calculated by nonlinear regression analysis using GraphPad Prism software.

PC-3 cells = assay: Cell growth inhibition (MTT assay), PC-3; type: cell-based, human; conditions: PC-3 (AR null), means of three experiments, called IC50, read-out: Cytotoxicity GI50 (nM) PC-3
Text: as §1
Inhibition of prostate cancer cell proliferation and SAR: The exemplary compounds were then tested for their ability to inhibit cell viability in both the LNCaP (mutant AR) and PC-3 (AR null) cell lines (Table 5).
as §2

[1] = system: AR-mediated transcription (LNCaP-AR); assay: Luciferase transactivation assay in LNCaP cells transfected with ARR2-Luc; type: cell-based, human; conditions: for effect on luciferase activity, compound alone: without DHT
Protocol: FIG. 12. […] Cells in steroid-free medium were treated with vehicle, or increasing concentrations of either 9 or 11 with and without 5 nM DHT for 18 h. Cells were then assayed for luciferase activity using a know assay.^10
To determine if the compounds act as AR agonists or antagonists, androgen regulated transcriptional activation studies were performed in LNCaP cells transiently transfected with the probasin luciferase reported construct ARR2-Luc.
(§3) These assays were performed as previously described.^10

wild-type AR = target: T1, wild-type AR (Homo sapiens, UniProt P10275); assay: Competitive androgen receptor binding with [3H]-R1881 in PC-3-AR cells; conditions: for reduction of [3H]-R1881 binding: PC-3-AR cells
T1 construct: expressed in transfected cells; host or cells: PC-3 (stably transfected, PC-3-AR)
T1 sequence (P10275 1-920): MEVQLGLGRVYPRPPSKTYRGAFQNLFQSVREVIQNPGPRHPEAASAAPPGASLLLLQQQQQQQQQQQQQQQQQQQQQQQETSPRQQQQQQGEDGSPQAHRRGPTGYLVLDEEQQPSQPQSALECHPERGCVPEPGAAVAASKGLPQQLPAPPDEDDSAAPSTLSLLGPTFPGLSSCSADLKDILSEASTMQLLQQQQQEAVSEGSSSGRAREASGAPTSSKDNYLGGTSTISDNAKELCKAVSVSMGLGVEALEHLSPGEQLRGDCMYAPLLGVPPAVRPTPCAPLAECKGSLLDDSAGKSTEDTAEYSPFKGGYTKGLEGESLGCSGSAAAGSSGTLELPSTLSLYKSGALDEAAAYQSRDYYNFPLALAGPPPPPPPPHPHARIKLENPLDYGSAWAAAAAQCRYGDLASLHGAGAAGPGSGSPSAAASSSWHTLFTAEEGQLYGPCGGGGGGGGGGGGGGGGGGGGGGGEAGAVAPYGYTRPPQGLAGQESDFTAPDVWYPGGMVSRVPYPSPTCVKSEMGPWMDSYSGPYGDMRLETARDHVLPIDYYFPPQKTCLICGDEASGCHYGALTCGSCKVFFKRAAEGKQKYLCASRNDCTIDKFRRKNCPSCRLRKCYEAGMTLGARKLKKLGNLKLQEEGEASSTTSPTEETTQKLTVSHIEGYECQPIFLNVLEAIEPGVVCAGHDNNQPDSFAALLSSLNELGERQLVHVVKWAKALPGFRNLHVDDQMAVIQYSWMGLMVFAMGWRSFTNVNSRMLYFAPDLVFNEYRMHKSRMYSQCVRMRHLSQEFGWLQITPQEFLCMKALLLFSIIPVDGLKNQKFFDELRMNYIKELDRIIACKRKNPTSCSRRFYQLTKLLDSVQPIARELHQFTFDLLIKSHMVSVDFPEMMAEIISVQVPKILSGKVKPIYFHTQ
Protocol: In both cell lines, compounds 9 and 11 were able to effectively compete with labeled R1881 in a dose-dependent fashion (FIG. 11). In PC-3-AR cells compound II reduced [^3H]-R1881 binding by 65% and 80% at 10 μM and 20 μM, respectively. […] Compound 9 reduced [^3H]-R1881 binding by 50% and 65% at 10 μM and 20 μM, respectively, and was equipotent in both cell lines.
as §3

[2] = AR down-regulation, LNCaP cells (Table 5), read-out: ARDA EC50
[3] = decrease of AR protein expression, LNCaP cells, training set ARDAs (Table 1), read-out: EC50 values

Compound	GI50 (LNCaP cells; Homo sapiens, LNCaP) [nM]	GI50 (PC-3 cells; Homo sapiens) [nM]	other results
Cc1ccc(S(=O)(=O)Nc2ccc(C)cc2[N+](=O)[O-])cc1 [BTB01434, reference compound]	39800	43700	EC50 (androgen receptor (AR); [2]): 76 µM; EC50 (androgen receptor (AR); LNCaP cells, database hits (Table 4), read-out: EC50 (μM), ability to down-regulate AR protein expression): 76 µM; IC50 (LNCaP cells; Homo sapiens, LNCaP cells (Table 4), read-out: IC50 (μM), effect on LNCaP cell viability): 39.8 µM
Cc1ccc(S(=O)(=O)Nc2ccccc2[N+](=O)[O-])cc1 [Compound 6, [(4-Methylphenyl)sulfonyl](2-nitrophenyl)amine]	83	50100	EC50 (androgen receptor (AR); [2]): > 150 µM
Cc1ccc(NS(=O)(=O)c2ccccc2)c([N+](=O)[O-])c1 [Compound 8, (4-Methyl-2-nitrophenyl)(phenylsulfonyl)amine]	2.95	60200	
Cc1ccc(NS(=O)(=O)c2ccccc2)c(C(=O)O)c1 [Compound 10, 5-Methyl-2-[(phenylsulfonyl)amino]benzoic acid]	18.2		
Cc1ccc(NS(=O)(=O)c2ccc(C)cc2)cc1 [Compound 11, (4-Methylphenyl)[(4-methylphenyl)sulfonyl]amine]	1.45	30200	effect on luciferase activity, compound alone ([1]; 0.1 μM): no effect; reduction of luciferase expression in the presence of DHT ([1]; 10 μM, with 5 nM DHT): 80%; effect on luciferase activity, compound alone ([1]; 10 μM): no effect; greater inhibition of [3H]-R1881 binding to wild-type AR than to mutated receptor (wild-type AR; 10 μM and above): approximately 20%; reduction of [3H]-R1881 binding (wild-type AR; 10 μM): 65%; reduction of [3H]-R1881 binding (wild-type AR; 20 μM): 80%
Cc1ccc(NS(=O)(=O)c2ccc(F)cc2)c(C(=O)O)c1 [Compound 12, {[(4-fluorophenyl)sulfonyl]amino}-5-methylbenzoicacid]			GI50 (LNCaP cells): 10700 nM; GI50 (PC-3 cells): > 100000 nM
Cc1ccc(C#N)c(NS(=O)(=O)c2ccc(F)cc2)c1 [Compound 13, 2-{[(4-fluorophenyl)sulfonyl]amino}-4-methylbenzenecarbonitrile]	30200	~100000	
Cc1ccc(-c2nnn[nH]2)c(NS(=O)(=O)c2ccc(F)cc2)c1 [Compound 14, (2-(1H-1,2,3,4-tetrazole-5-yl)-5-methylphenyl)[(4-fluorophenyl)sulfonyl]amine]	> 100000	> 100000	
Cc1ccc(NS(=O)(=O)c2ccccc2)cc1 [Compound 15, (4-methylphenyl)(phenylsulfonyl)amine]	21300	13800	
Cc1ccc(S(=O)(=O)Nc2ccccc2)cc1 [Compound 16, [(4-Methylphenyl)sulfonyl]phenylamine]	24000	38900	
O=S(=O)(Nc1ccccc1)c1ccccc1 [Compound 17, Phenyl(phenylsulfonyl)amine]	53500	> 100000	
Cc1ccc(N(C)S(=O)(=O)c2ccc(C)cc2)cc1 [Compound 18, Methyl(4-methylphenyl)[(4-methylphenyl)sulfonyl]amine]	89200	44700	
Cc1ccc(NC(=O)c2ccc(C)cc2)cc1 [Compound 19, (4-Methylphenyl)-N-(4-methylphenyl)carboxamide]	55000	26900	
Cc1ccc(CNc2ccc(C)cc2)cc1 [Compound 21, (4-Methylphenyl) [(4-methylphenyl)methyl]amine]	19000	29500	
Cc1ccc(NCc2ccccc2)cc1 [Compound 23, (4-Methylphenyl)benzylamine]	> 100000	52400	
COc1cc(/C=C/C(=O)CC(=O)/C=C/c2ccc(O)c(OC)c2)ccc1O [Curcumin (4), curcumin]			EC50 (androgen receptor (AR); [3]): 35 µM
C[C@]12CCC(=O)C[C@@H]1CC[C@@H]1[C@@H]2CC[C@]2(C)[C@@H](O)CC[C@@H]12 [DHT, dihydrotestosterone, reference compound]			stimulation of luciferase activity ([1]; 5 nM): approximately 200 fold
O=C(O)c1ccccc1Nc1cccc(C(F)(F)F)c1 [Flufenamic acid (3), flufenamic acid]			EC50 (androgen receptor (AR); [3]): ~200 µM
